From paper PMC13080581, “Identification and characterization of vasoactive intestinal peptide receptor antagonists with high-affinity and potent anti-leukemia activity” (The Journal of Biological Chemistry, 2025)
Ends that are not written are not given here.

Tests used:
C1498ff cells = test: C1498ff leukemia model in B6 albino mice, ANT308 schedules; format: in vivo, mouse; conditions: high-dose (100 μg)
Description: All experimental procedures involving animals were approved by the Institutional Animal Care and Use Committee (IACUC) at Emory University. On day 0, B6 mice were injected by tail vein injection (i.v.) with 1 × 10^6 C1498 cells. DBA/2 mice were injected subcutaneously (s.c.) with 1 x 10^5 P815-luciferase mastocytoma cells. Growth of luciferase + C1498ff in B6 albino recipients was assessed by bioluminescent imaging (BLI) after mice were anesthetized, injected intraperitoneally (i.p.) with luciferin substrate (15 μg/g mouse), and imaged using an IVIS imaging system, starting at day 6 before treatment and continuing once weekly. Albino B6 mice surviving to >60 days without evidence of AML (by luciferase assay) received a second injection of a two-fold higher dose of C1498 (2 × 10^6 cells). DBA/2 mice that received P815 cells and treatment with ANT308, and survived past 60 days, were rechallenged using 2 x 10^5 P815 cells. Lymphocyte kinetics and C1498 leukemia cell burden were analyzed weekly through pterygoid venous plexus blood collection in CD45.1+ B6.SJL recipients; CD45.2 C1498 tumor cells were differentiated from CD45.1 host cells by flow cytometry. Mice that reached endpoint conditions were euthanized and counted as dead on the next day. […]

in vivo = conditions: mouse, iv
Description: (§1) Plasma was collected at multiple time points post-injection and analyzed by SDS-PAGE using 12% polyacrylamide gel. Densitometry was performed using ImageJ and % peptide remaining was plotted using GraphPad Prism. The images were acquired using BioRad ChemiDoc Touch Imaging System with Image Lab Touch Software.

in vitro = in vitro ADME; conditions: human, plasma
Description: Data were plotted using GraphPad Prism.

human T cells = conditions: 3 µM
[1] = target: T1, VPAC1 on Vipr2 KO murine T-cells (Mus musculus, UniProt P97751); test: Immunostaining colocalization with VPAC1 on Vipr2 KO murine T-cells; format: cell-based; conditions: Pearson's correlation
T1 construct: Vipr2 knockout (KO) T-cells stained for VPAC1 (green); endogenous in cells; host or cells: T cells from Vipr2 knockout mice
T1 sequence (P97751 31-459): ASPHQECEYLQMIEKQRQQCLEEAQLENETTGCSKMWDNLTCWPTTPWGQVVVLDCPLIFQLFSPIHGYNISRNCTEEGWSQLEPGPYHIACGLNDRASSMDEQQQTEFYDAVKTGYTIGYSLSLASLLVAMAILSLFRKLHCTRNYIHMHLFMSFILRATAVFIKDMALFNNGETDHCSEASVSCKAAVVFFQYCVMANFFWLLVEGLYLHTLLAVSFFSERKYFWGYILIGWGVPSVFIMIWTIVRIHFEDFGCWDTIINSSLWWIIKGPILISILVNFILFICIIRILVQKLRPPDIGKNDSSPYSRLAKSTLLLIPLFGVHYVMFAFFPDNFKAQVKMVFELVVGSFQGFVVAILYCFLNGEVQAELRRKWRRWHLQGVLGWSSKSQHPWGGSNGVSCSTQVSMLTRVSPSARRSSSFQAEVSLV
Description: Merge + NucleusSupplementary Figure 5. Immunostaining showing 6xHis-ANT308, 6xHis-VIP, and 6xHis-Scrambled-sequence peptides colocalization with VPAC1 on murine T-cells surface. Isolated T-cells from naïve wild-type (WT) C57BL/6 mice were activated with α-CD3/α-CD28 beads and incubated with 10µM (A-F) ANT308-6xHis, (G-L) VIP-6xHis and (M-R) VIP fully SCRAM-6xHis in the presence of IL-2 (30 IU/mL) for 1 hour. The cells were fixed with 4% Paraformaldehyde, stained with VPAC1 (green), 6xHis-tag (magenta) & Hoechst (blue) and visualized on Cell-Tak coated glass-bottom plates. (A-C, G-I and M-O) en face view, (D,J & P) representative field view, (E, K & Q) 3D view, (F, L & R) line scan profiles showing colocalization patterns of ANT308-6xHis, VIP-6xHis and VIP-fully scrambled-6xHis with VPAC1 on T-cell membrane. Relative fluorescence intensity (RFI), arbitrary unit. (S) Quantification of co-localization using Pearson’s correlation coefficient (R-value). Data are shown as mean ± SD with individual data points (n=10). Statistical significance was determined by one-way Anova with post-hoc multiple comparisons. **** p < 0.0001, *** p < 0.001. Scale 2.5µm.
Supplementary Figure 6. […] (K) Quantification of co-localization using Pearson’s correlation coefficient (R-value). […] Statistical significance was determined by one-way Anova with post-hoc multiple comparisons. **** p < 0.0001. […]

[2] = In vivo plasma half-life of 6xHis-tagged peptides after i.v. injection, western blot; conditions: mouse, iv
Description: as §1

[3] = target: VIP receptor (VIP-R) on human T cells (human (endogenous in human T cells)) (UniProt P32241)
VIP receptor (VIP-R) on human T cells (human (endogenous in human T cells)), sequence (P32241 31-457): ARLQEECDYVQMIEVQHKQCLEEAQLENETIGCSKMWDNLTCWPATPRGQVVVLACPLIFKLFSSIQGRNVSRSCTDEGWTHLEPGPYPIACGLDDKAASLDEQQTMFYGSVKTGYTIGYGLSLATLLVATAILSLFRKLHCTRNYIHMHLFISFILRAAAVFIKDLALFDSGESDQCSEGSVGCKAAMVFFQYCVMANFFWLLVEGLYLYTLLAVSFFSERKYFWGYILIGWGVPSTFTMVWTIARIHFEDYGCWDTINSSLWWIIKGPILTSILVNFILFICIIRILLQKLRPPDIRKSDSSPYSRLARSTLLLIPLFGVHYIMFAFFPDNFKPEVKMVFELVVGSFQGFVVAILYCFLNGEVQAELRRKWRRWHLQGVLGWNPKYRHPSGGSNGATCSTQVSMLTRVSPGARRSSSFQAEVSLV

With “KPRRPYTSDYTRLRKQMAVKKYLNLILN-NH2 [ANT308]” the “toxic effects in weight or behavior of treated mice” value (C1498ff cells) was “did not produce any observable toxic effects”.

“KPRRPYTSDYTRLRKQMAVKKYLNLILNHHHHHH-NH2 [ANT308-6xHis]” gave a half-life (in vivo) of roughly 15 min and a half-life (in vitro) of roughly 15 min.

With “KPRRPYTVNYTSLRKQIAVKKYLMLILN-NH2 [ANT195]” the T cell viability (human T cells) was roughly 30%.

With “YDDHTKLKINTARLVSAQSNVFNMLKYRHHHHHH-NH2 (C-terminus assumed) [VIP fully SCRAM-6xHis]” the “co-localization with VPAC1 in Vipr2 KO murine T-cells” value [1] was “shows no overlap” and the half-life [2] was roughly 30 min.

Work on `CC[C@H](C)[C@H](NC(=O)[C@H](CO)NC(=O)[C@H](CC(N)=O)NC(=O)[C@H](CC(C)C)NC(=O)[C@H](Cc1ccc(O)cc1)NC(=O)[C@H](CCCCN)NC(=O)[C@H](CCCCN)NC(=O)[C@@H](NC(=O)[C@H](C)NC(=O)[C@H](CCSC)NC(=O)[C@H](CCC(N)=O)NC(=O)[C@H](CCCCN)NC(=O)[C@H](CCCNC(=N)N)NC(=O)[C@H](CC(C)C)NC(=O)[C@H](CCCNC(=N)N)NC(=O)[C@@H](NC(=O)[C@H](Cc1ccc(O)cc1)NC(=O)[C@H](CC(N)=O)NC(=O)[C@H](CC(=O)O)NC(=O)[C@@H](NC(=O)[C@H](Cc1ccccc1)NC(=O)[C@@H](NC(=O)[C@H](C)NC(=O)[C@H](CC(=O)O)NC(=O)[C@H](CO)NC(=O)[C@@H](N)Cc1c[nH]cn1)C(C)C)[C@@H](C)O)[C@@H](C)O)C(C)C)C(=O)N[C@@H](CC(C)C)C(=O)N[C@@H](CC(N)=O)C(=O)N[C@@H](Cc1c[nH]cn1)C(=O)N[C@@H](Cc1c[nH]cn1)C(=O)N[C@@H](Cc1c[nH]cn1)C(=O)N[C@@H](Cc1c[nH]cn1)C(=O)N[C@@H](Cc1c[nH]cn1)C(=O)N[C@@H](Cc1c[nH]cn1)C(N)=O` [VIP-6xHis, reference compound] yielded a half-life (in vitro) of roughly 15 min.

For KPRRPYTSDYTRLRKQMAVKKYLNLILN-NH2 [ANT308], the CD69 expression on CD4+ or CD8+ pooled human T cells treated with increasing concentrations of ANT308 (T cell activation, flow cytometry) [3] was 0.3 to 0.4 µM.
